In patent US10105357B2, “Indication of antibiotic drugs for preparation of cancer inhibition pharmaceutical composition” (LAUNX BIOMEDICAL CO., LTD., priority 2014, dated 2018):
Read-outs that look alike come from different tables or passages of the source.

Experiments:
Assay type in all cases: cell-based, human
[1] = system: cancer cell lines; assay: Cell viability analysis (WST-1) on cancer cell lines; conditions: drug 10 μM, 72 hours, WST-1; Table 3
[2] = system: HI650 (Lung Adenocarcinoma); assay: Cell viability analysis, lung cancer HI650; conditions: Homo sapiens
[3] = system: A549 (Lung Adenocarcinoma); assay: Cell viability analysis, lung cancer A549; conditions: Homo sapiens
[4] = system: AGS (Gastric Adenocarcinoma); assay: Cell viability analysis, gastric cancer AGS; conditions: Homo sapiens
[5] = system: MKN-45 (Gastric Adenocarcinoma); assay: Cell viability analysis, gastric cancer MKN-45; conditions: Homo sapiens
[6] = system: HepG2 (Hepatocellular Carcinoma); assay: Cell viability analysis, hepatic cancer HepG2; conditions: Homo sapiens
[7] = system: LoVo (Colorectal Adenocarcinoma); assay: Cell viability analysis, colon cancer LoVo; conditions: Homo sapiens, LoVo
[8] = system: A375 (Amelanotic Melanoma); assay: Cell viability analysis, skin cancer A375; conditions: Homo sapiens
[9] = system: HeLa (Cervix Adenocarcinoma); assay: Cell viability analysis, cervical cancer HeLa; conditions: Homo sapiens, HeLa
[10] = system: PC3 (p53−) (Prostate Adenocarcinoma); assay: Cell viability analysis, prostate cancer PC3; conditions: Homo sapiens
[11] = system: TSGH-8301 (Urinary Bladder Carcinoma); assay: Cell viability analysis, bladder cancer TSGH-8301; conditions: Homo sapiens
[12] = system: MCF7 (Mammary Gland, Adenocarcinoma); assay: Cell viability analysis, breast cancer MCF7; conditions: Homo sapiens
[13] = system: HL-60 (Acute Promyelocytic Leukemia); assay: Cell viability analysis, leukemia HL-60; conditions: Homo sapiens
[14] = NCI-H1650, 72 h, read-out: cell viability (survival rate), H1650, drug 10 μM, 72 hours, WST-1, OD450 nm
[15] = A549, 72 h, read-out: cell viability (survival rate), A549, drug 10 μM, 72 hours, WST-1, OD450 nm
[16] = 72 h, read-out: cell viability (survival rate), AGS, drug 10 μM, 72 hours, WST-1, OD450 nm
[17] = MKN-45, 72 h, read-out: cell viability (survival rate), MKN-45, drug 10 μM, 72 hours, WST-1, OD450 nm
[18] = HepG2, 72 h, read-out: cell viability (survival rate), HepG2, drug 10 μM, 72 hours, WST-1, OD450 nm
[19] = 72 h, read-out: cell viability (survival rate), LoVo, drug 10 μM, 72 hours, WST-1, OD450 nm
[20] = A-375, 72 h, read-out: cell viability (survival rate), A375, drug 10 μM, 72 hours, WST-1, OD450 nm
[21] = 72 h, read-out: cell viability (survival rate), HeLa, drug 10 μM, 72 hours, WST-1, OD450 nm
[22] = 72 h, read-out: cell viability (survival rate), PC3, drug 10 μM, 72 hours, WST-1, OD450 nm
[23] = 72 h, read-out: cell viability (survival rate), TSGH, drug 10 μM, 72 hours, WST-1, OD450 nm
[24] = MCF7, 72 h, read-out: cell viability (survival rate), MCF7, drug 10 μM, 72 hours, WST-1, OD450 nm
[25] = HL-60, 72 h, read-out: cell viability (survival rate), HL-60, drug 10 μM, 72 hours, WST-1, OD450 nm
[26] = NCI-H1650, 72 h, drug 10 μM, 72 hours, WST-1, OD450 nm, read-out: cell viability (survival rate), H1650
[27] = A549, 72 h, drug 10 μM, 72 hours, WST-1, OD450 nm, read-out: cell viability (survival rate), A549
[28] = 72 h, drug 10 μM, 72 hours, WST-1, OD450 nm, read-out: cell viability (survival rate), AGS
[29] = MKN-45, 72 h, drug 10 μM, 72 hours, WST-1, OD450 nm, read-out: cell viability (survival rate), MKN-45
[30] = HepG2, 72 h, drug 10 μM, 72 hours, WST-1, OD450 nm, read-out: cell viability (survival rate), HepG2
[31] = A-375, 72 h, drug 10 μM, 72 hours, WST-1, OD450 nm, read-out: cell viability (survival rate), A375
[32] = 72 h, drug 10 μM, 72 hours, WST-1, OD450 nm, read-out: cell viability (survival rate), HeLa
[33] = 72 h, drug 10 μM, 72 hours, WST-1, OD450 nm, read-out: cell viability (survival rate), PC3
[34] = 72 h, drug 10 μM, 72 hours, WST-1, OD450 nm, read-out: cell viability (survival rate), TSGH
[35] = MCF7, 72 h, drug 10 μM, 72 hours, WST-1, OD450 nm, read-out: cell viability (survival rate), MCF7
[36] = HL-60, 72 h, drug 10 μM, 72 hours, WST-1, OD450 nm, read-out: cell viability (survival rate), HL-60
[37] = NCI-H1650, drug 10 μM, 72 hours, WST-1, OD450 nm, read-out: cell viability (survival rate), H1650
[38] = A549, drug 10 μM, 72 hours, WST-1, OD450 nm, read-out: cell viability (survival rate), A549
[39] = drug 10 μM, 72 hours, WST-1, OD450 nm, read-out: cell viability (survival rate), AGS
[40] = MKN-45, drug 10 μM, 72 hours, WST-1, OD450 nm, read-out: cell viability (survival rate), MKN-45
[41] = HepG2, drug 10 μM, 72 hours, WST-1, OD450 nm, read-out: cell viability (survival rate), HepG2
[42] = drug 10 μM, 72 hours, WST-1, OD450 nm, read-out: cell viability (survival rate), LoVo
[43] = A-375, drug 10 μM, 72 hours, WST-1, OD450 nm, read-out: cell viability (survival rate), A375
[44] = drug 10 μM, 72 hours, WST-1, OD450 nm, read-out: cell viability (survival rate), HeLa
[45] = drug 10 μM, 72 hours, WST-1, OD450 nm, read-out: cell viability (survival rate), PC3
[46] = drug 10 μM, 72 hours, WST-1, OD450 nm, read-out: cell viability (survival rate), TSGH
[47] = MCF7, drug 10 μM, 72 hours, WST-1, OD450 nm, read-out: cell viability (survival rate), MCF7
[48] = HL-60, drug 10 μM, 72 hours, WST-1, OD450 nm, read-out: cell viability (survival rate), HL-60

| Structure (SMILES) | inhibition effect on different cancer cell lines [1] | viability at 10 µM [2, 14] [%] | viability at 10 µM [3, 15] [%] | viability at 10 µM [4, 16] [%] | viability at 10 µM [5, 17] [%] | viability at 10 µM [6, 18] [%] | viability at 10 µM [7, 19] [%] | viability at 10 µM [8, 20] [%] | viability at 10 µM [9, 21] [%] | viability at 10 µM [10, 22] [%] | viability at 10 µM [11, 23] [%] | viability at 10 µM [12, 24] [%] | viability at 10 µM [13, 25] [%] | also measured |
| --- | --- | --- | --- | --- | --- | --- | --- | --- | --- | --- | --- | --- | --- | --- |
| CCc1cc(C(N)=S)ccn1 [Ethionamide] | significant inhibition effect | 78.3 | 42.4 | 53.7 | 45.4 | 97.7 | 86.5 | 76.6 | 44.8 | 85.3 | 53.2 | 36.4 | 102 |  |
| CC(=O)N[C@H]1[C@H]([C@H](O)[C@H](O)CO)OC(C(=O)O)=C[C@@H]1N=C(N)N [Zanamivir (Relenza), Zanamivir] | significant inhibition effect |  |  |  |  |  | 77.3 |  |  |  |  |  |  | viability at 10 µM [2, 26]: 62.7%; viability at 10 µM [3, 27]: 93%; viability at 10 µM [4, 28]: 75.1%; viability at 10 µM [5, 29]: 85.8%; viability at 10 µM [6, 30]: 110%; viability at 10 µM [8, 31]: 51.5%; viability at 10 µM [9, 32]: 71.8%; viability at 10 µM [10, 33]: 106%; viability at 10 µM [11, 34]: 88.5%; viability at 10 µM [12, 35]: 69.6%; viability at 10 µM [13, 36]: 146% |
| C[N+]1(C)[C@@H]2C[C@@H](OC(=O)C(O)(c3cccs3)c3cccs3)C[C@H]1[C@@H]1O[C@@H]12 [Tiotropium Bromide hydrate] | significant inhibition effect | 40.9 | 62 | 73.1 | 86.1 | 90.9 | 88.7 | 86.3 | 124 | 83.8 | 54.7 | 80 | 87.8 |  |
| Cc1cccc(C)c1OCC(=O)N[C@@H](Cc1ccccc1)[C@@H](O)C[C@H](Cc1ccccc1)NC(=O)[C@H](C(C)C)N1CCCNC1=O [Lopinavir (ABT-378), Lopinavir] | significant inhibition effect | 53.1 | 63.8 | 55.4 | 74.2 | 93.1 | 85.1 | 83.1 | 116 | 68 | 82.2 | 77.9 | 92.4 |  |
| NC1CCN(c2c(F)cc3c(=O)c(C(=O)O)cn(C4CC4)c3c2Cl)C1 (stereo not shown) [Clinafloxacin (PD127391), Clinafloxacin] | significant inhibition effect | 72.4 | 67.5 | 74.2 | 91.3 | 73.8 | 92.7 | 59.3 | 97 | 36.7 | 83.3 | 78.6 | 71.2 |  |
| COc1cccc(N(C)C(=S)Oc2ccc3c(c2)CCCC3)n1 [Liranaftate] | significant inhibition effect |  |  |  |  |  |  |  |  |  |  |  |  | viability at 10 µM [2, 37]: 50.7%; viability at 10 µM [3, 38]: 67.1%; viability at 10 µM [4, 39]: 73.6%; viability at 10 µM [5, 40]: 76.7%; viability at 10 µM [6, 41]: 79.8%; viability at 10 µM [7, 42]: 86.6%; viability at 10 µM [8, 43]: 84.5%; viability at 10 µM [9, 44]: 89%; viability at 10 µM [10, 45]: 92.7%; viability at 10 µM [11, 46]: 108%; viability at 10 µM [12, 47]: 84.8%; viability at 10 µM [13, 48]: 92% |
| C[C@H]1[C@H](NC(=O)/C(=N\OC(C)(C)C(=O)O)c2csc(N)n2)C(=O)N1S(=O)(=O)O [Aztreonam (Azactam, Cayston), Aztreonam] | significant inhibition effect | 48.6 | 56.9 | 40.9 | 60.5 | 111 | 76.3 | 88.6 | 87.2 | 55.2 | 52.3 | 68.6 | 113 |  |
| CCn1cc(C(=O)O)c(=O)c2cc(F)c(N3CCNCC3)nc21 [Enoxacin (Penetrex), Enoxacin] | significant inhibition effect |  |  |  |  |  | 83.8 |  |  |  |  |  |  | viability at 10 µM [2, 26]: 92.3%; viability at 10 µM [3, 27]: 45.8%; viability at 10 µM [4, 28]: 111%; viability at 10 µM [5, 29]: 54.3%; viability at 10 µM [6, 30]: 88.1%; viability at 10 µM [8, 31]: 66.9%; viability at 10 µM [9, 32]: 68.5%; viability at 10 µM [10, 33]: 112%; viability at 10 µM [11, 34]: 90.4%; viability at 10 µM [12, 35]: 44.5%; viability at 10 µM [13, 36]: 108% |
| Clc1ccc(C(Cn2ccnc2)OCc2c(Cl)cccc2Cl)c(Cl)c1 (stereo not shown) [Isoconazole nitrate (Travogen), Isoconazole nitrate] | significant inhibition effect |  |  |  |  |  |  |  |  |  |  |  |  | viability at 10 µM [2, 37]: 102%; viability at 10 µM [3, 38]: 91.7%; viability at 10 µM [4, 39]: 74.8%; viability at 10 µM [5, 40]: 126%; viability at 10 µM [6, 41]: 99.4%; viability at 10 µM [7, 42]: 102%; viability at 10 µM [8, 43]: 95%; viability at 10 µM [9, 44]: 165%; viability at 10 µM [10, 45]: 82.5%; viability at 10 µM [11, 46]: 88.2%; viability at 10 µM [12, 47]: 95.1%; viability at 10 µM [13, 48]: 49.2% |
| Nc1ccc(S(=O)(=O)Nc2ccccn2)cc1 [Sulfapyridine (Dagenan), Sulfapyridine] | significant inhibition effect | 69.5 | 64.5 | 71.9 | 53.8 | 98.9 | 84.6 | 77.2 | 71.2 | 108 | 64.6 | 54.7 | 111 |  |
